Measurements as given in the NIST ThermoML archive (doi:10.1016/j.fluid.2010.02.038).
± gives the expanded uncertainty stated by the source.

Assay: relative permittivity at various frequencies (dimensionless); xn = mol fraction of the nth substance listed
Conditions: 303.15 K, 101 kPa, Liquid, Frequency=1 MHz, Capacitive measurement method at f=1 MHz

Row | Compound | relative permittivity (x2 = 0) | relative permittivity (x2 = 0.068) | relative permittivity (x2 = 0.141) | relative permittivity (x2 = 0.22) | relative permittivity (x2 = 0.305) | relative permittivity (x2 = 0.397) | relative permittivity (x2 = 0.497) | relative permittivity (x2 = 0.606) | relative permittivity (x2 = 0.725) | relative permittivity (x2 = 0.856)
1 | CN(C)C=O [dimethylformamide] + NCCO | 36.55 ± 0.22 | – | – | – | – | – | – | – | – | –
2 | NC=O [formamide] + NCCO | 106.14 ± 0.64 | 97.77 ± 1.3 | 90.12 ± 1.2 | 81.77 ± 1.1 | 74.02 ± 0.98 | 66.34 ± 0.87 | 59.14 ± 0.77 | 52.04 ± 0.71 | 44.61 ± 0.66 | 36.91 ± 0.53
